Our source for the IC50 and inhibition values is US8815918B2, “Imidazo [2, 1-B] [1, 3, 4] thiadiazole derivatives” (Centro Nacional de Investigaciones Oncologicas (CNIO), priority 2009, dated 2014).

This test addresses PI3K (p110α/p85α) (Homo sapiens (Human), UniProt P42336). The test can be described thus: PI3K Activity Assay (ADP Hunter Plus). The following applies: for inhibition at 10 µM: 10 μM compound concentration, read-out: Inhibition (%) of PI3Kα activity, Inh (%) at 10 μM. It counts as biochemical. The protocol:
The kinase activity was measured by using the commercial ADP Hunter™ Plus assay available from DiscoveRx (#33-016), which is a homogeneous assay to measure the accumulation of ADP, a universal product of kinase activity. The enzyme, PI3K (p110α/p85α was purchased from Carna Biosciences (#07CBS-0402A). The assay was done following the manufacturer recommendations with slight modifications: Mainly the kinase buffer was replace by 50 mM HEPES, pH 7.5, 3 mM MgCl2, 100 mM NaCl, 1 mM EGTA, 0.04% CHAPS, 2 mM TCEP and 0.01 mg/ml BGG. The PI3K was assayed in a titration experiment to determine the optimal protein concentration for the inhibition assay. To calculate the IC50 of the ETP-compounds, serial 1:5 dilutions of the compounds were added to the enzyme at a fixed concentration (2.5 μg/mL. The enzyme was preincubated with the inhibitor and 30 μM PIP2 substrate (P9763, Sigma) for 5 min and then ATP was added to a final 50 μM concentration. Reaction was carried out for 1 hour at 25° C. Reagent A and B were sequentially added to the wells and plates were incubated for 30 min at 37° C. Fluorescence counts were read in a Victor instrument (Perkin Elmer) with the recommended settings (544 and 580 nm as excitation and emission wavelengths, respectively). Values were normalized against the control activity included for each enzyme (i.e., 100% PI3 kinase activity, without compound). These values were plot against the inhibitor concentration and were fit to a sigmoid dose-response curve by using the Graphad software.

Setting [1] is: read-out: Biological activity in PI3Kα, semi-quantitative.

The structures appear in SMILES notation. Like-named read-outs stand apart in the source and are kept apart here. Bounds are passed on as bounds.

Chain of PI3K (p110α/p85α) (P42336 whole entry): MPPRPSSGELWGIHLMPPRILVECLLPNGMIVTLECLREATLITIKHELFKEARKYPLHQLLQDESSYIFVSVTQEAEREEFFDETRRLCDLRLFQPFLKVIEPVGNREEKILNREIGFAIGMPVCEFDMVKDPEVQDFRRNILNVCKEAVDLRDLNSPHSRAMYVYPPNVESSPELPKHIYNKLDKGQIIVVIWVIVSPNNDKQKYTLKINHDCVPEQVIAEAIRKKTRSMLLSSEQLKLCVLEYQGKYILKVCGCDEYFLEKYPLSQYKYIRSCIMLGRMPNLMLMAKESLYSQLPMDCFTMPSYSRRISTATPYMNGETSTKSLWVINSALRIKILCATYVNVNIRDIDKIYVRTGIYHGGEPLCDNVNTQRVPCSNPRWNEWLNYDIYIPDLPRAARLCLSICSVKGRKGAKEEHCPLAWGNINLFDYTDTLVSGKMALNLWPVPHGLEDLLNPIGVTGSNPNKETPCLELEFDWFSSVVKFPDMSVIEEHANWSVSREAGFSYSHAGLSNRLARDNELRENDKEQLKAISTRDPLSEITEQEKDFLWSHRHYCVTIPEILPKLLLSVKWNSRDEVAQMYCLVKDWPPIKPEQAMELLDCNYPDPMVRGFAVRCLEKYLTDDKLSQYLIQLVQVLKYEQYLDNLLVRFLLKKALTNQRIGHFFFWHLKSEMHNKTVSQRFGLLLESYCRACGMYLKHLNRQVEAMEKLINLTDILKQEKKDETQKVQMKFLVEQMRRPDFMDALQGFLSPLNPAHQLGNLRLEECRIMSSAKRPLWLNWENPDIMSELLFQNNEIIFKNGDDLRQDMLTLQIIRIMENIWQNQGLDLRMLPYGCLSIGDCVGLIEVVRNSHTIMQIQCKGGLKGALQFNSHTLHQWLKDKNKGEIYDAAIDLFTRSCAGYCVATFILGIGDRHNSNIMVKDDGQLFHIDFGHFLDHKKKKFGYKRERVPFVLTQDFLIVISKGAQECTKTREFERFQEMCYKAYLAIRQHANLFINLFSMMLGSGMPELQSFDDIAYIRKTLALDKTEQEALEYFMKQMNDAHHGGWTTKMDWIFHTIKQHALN
Chain of PI3K (p110α/p85α) (P27986 whole entry partner): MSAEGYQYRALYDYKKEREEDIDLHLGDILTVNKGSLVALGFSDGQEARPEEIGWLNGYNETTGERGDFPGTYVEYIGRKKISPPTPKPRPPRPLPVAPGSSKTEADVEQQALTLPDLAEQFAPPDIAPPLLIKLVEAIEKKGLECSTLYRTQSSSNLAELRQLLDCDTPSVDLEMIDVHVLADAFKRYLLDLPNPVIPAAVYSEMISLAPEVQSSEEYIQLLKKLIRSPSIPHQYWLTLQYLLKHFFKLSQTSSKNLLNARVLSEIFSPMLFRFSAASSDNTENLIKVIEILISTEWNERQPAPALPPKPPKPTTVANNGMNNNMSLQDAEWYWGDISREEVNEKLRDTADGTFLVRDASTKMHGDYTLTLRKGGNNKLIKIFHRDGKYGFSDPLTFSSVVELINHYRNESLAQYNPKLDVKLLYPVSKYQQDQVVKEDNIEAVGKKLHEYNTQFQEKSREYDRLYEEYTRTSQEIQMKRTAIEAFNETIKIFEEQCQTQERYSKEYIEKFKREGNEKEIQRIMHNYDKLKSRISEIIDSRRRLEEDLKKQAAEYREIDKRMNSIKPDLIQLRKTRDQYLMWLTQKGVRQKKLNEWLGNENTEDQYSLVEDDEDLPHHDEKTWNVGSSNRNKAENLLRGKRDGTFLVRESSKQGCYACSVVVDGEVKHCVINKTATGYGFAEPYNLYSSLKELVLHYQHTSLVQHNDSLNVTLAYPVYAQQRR

In the case of `CC(C)(C)OC(=O)N1CCC2(CC1)C(=O)Nc1ccc(-c3nn4c(-c5cnc(N)c(C(F)(F)F)c5)cnc4s3)cc12` [Example 38, 5-[2-(1′-(tert-butoxycarbonyl)-2-oxo-1,2-dihydrospiro[indole-3,4′-piperidine]-5-yl)-imidazo[2,1-b][1,3,4]thiadiazol-5-yl]-3-trifluoromethyl-pyridin-2-ylamine], the IC50 under setting [1] lay within 1 to 50 µM.
`COc1ccc(-c2nn3c(-c4cccnc4)c(C)nc3s2)cc1OC` [Example 4, 2-(3,4-Dimethoxy-phenyl)-6-methyl-5-pyridin-3-yl-imidazo[2,1-b][1,3,4]thiadiazole]: the inhibition (as a rule, how much of the control response was suppressed) at 10 µM was 81%. Also, under setting [1], the IC50 lay within 1 to 50 µM.
Consider `COc1cc(-c2nn3c(-c4cnc(N)c(C(F)(F)F)c4)c(C)nc3s2)ccc1OCCN1CCOCC1` [Example 11, 5-(2-(4-(2-morpholinoethoxy)-3-methoxyphenyl)-6-methylimidazo[2,1-b][1,3,4]thiadiazol-5-yl)-3-(trifluoromethyl)pyridin-2-amine], for which the inhibition at 10 µM was 83%. For the same compound, under setting [1], the IC50 fell in the range of 1 to 50 µM.
In the same order, the values of `COc1ccc(-c2nn3c(-c4ccc(OC)c(OC)c4)c(C)nc3s2)cc1OC` [Example 6, 2,5-Bis-(3,4-dimethoxy-phenyl)-6-methyl-imidazo[2,1-b][1,3,4]thiadiazole] are 85% and 0.1 to 1 µM.
For `CS(=O)(=O)Nc1cccc(-c2nn3c(-c4cnc(N)c(C(F)(F)F)c4)cnc3s2)c1` [Example 31, N-{3-[5-(6-Amino-5-trifluoromethyl-pyridin-3-yl)-imidazo[2,1-b][1,3,4]thiadiazol-2-yl]-phenyl}-methanesulfonamide], the IC50 under setting [1] was less than 0.1 µM.
As to `CCn1cc(-c2nn3c(-c4cnc(N)c(C(F)(F)F)c4)cnc3s2)cn1` [Example 36, 5-[2-(1-Ethyl-1H-pyrazol-4-yl)-imidazo[2,1-b][1,3,4]thiadiazol-5-yl]-3-trifluoromethyl-pyridin-2-ylamine], the IC50 runs as follows: under setting [1], less than 0.1 µM; (read-out: IC50 [μM] PI3Kα) 0.095 µM.
Consider `COc1ccc(-c2nn3c(-c4ccc(S(C)(=O)=O)c(F)c4)c(C)nc3s2)cc1OC` [Example 1, 2-(3,4-Dimethoxy-phenyl)-5-(3-fluoro-4-methanesulfonyl-phenyl) -6-methyl-imidazo[2,1-b][1,3,4]thiadiazole], for which the inhibition at 10 µM was 68%. Besides, under setting [1], the IC50 lay within 0.1 to 1 µM.
Regarding `COc1ccc(-c2nn3c(-c4ccc(C#N)nc4)cnc3s2)cc1OC` [Example 17, 5-[2-(3,4-Dimethoxy-phenyl)-imidazo[2,1-b][1,3,4]thiadiazol-5-yl]-pyridine-2-carbonitrile], the inhibition at 10 µM amounted to 95%. Under setting [1], the IC50 was less than 0.1 µM. The IC50 (read-out: IC50 [μM] PI3Kα) was determined as 0.063 µM.
As to `COc1ccc(-c2nn3c(-c4cnc(N5CCN(C(=O)OC(C)(C)C)CC5)nc4)cnc3s2)cc1OC` [Example 19, 4-{5-[2-(3,4-Dimethoxy-phenyl)-imidazo[2,1-b][1,3,4]thiadiazol-5-yl]-pyrimidin-2-yl}-piperazine-1-carboxylic acid tert-butyl ester], under setting [1], the IC50 was 1 to 50 µM.
With `Nc1ncc(-c2cnc3sc(-c4cccc(S(=O)(=O)N5CCOCC5)c4)nn23)cc1C(F)(F)F` [Example 45, 5-{2-[3-(Morpholine-4-sulfonyl)-phenyl]-imidazo[2,1-b][1,3,4]thiadiazol-5-yl}-3-trifluoromethyl-pyridin-2-ylamine], the IC50 under setting [1] is 0.1 to 1 µM and the IC50 (read-out: IC50 [μM] PI3Kα) turned out to be 0.437 µM.
For the compound `COc1ccc(-c2c(C)nc3sc(-c4ccc(OC)c(OC)c4)nn23)cn1` [Example 5, 2-(3,4-Dimethoxy-phenyl)-5-(6-methoxy-pyridin-3-yl)-6-methyl-imidazo[2,1-b][1,3,4]thiadiazole], the inhibition at 10 µM came to 70%. Under setting [1], the IC50 fell in the range of 1 to 50 µM. Further, the IC50 (read-out: IC50 [μM] PI3Kα) is 2.88 µM.
For the compound `Nc1ncc(-c2cnc3sc(-c4ccc(S(=O)(=O)N5CCOCC5)cc4)nn23)cc1C(F)(F)F` [Example 44, 5-{2-[4-(Morpholine-4-sulfonyl)-phenyl]-imidazo[2,1-b][1,3,4]thiadiazol-5-yl}-3-trifluoromethyl-pyridin-2-ylamine], under setting [1], the IC50 fell in the range of 0.1 to 1 µM.
On the same count and under the same terms, in the case of `COc1ccc(-c2nn3c(-c4cnc(SC)nc4)cnc3s2)cc1OC` [Example 24, 2-(3,4-Dimethoxy-phenyl)-5-(2-methylsulfanyl-pyrimidin-5-yl)-imidazo[2,1-b][1,3,4]thiadiazole] it was 0.1 to 1 µM.
Take `COc1cc(-c2nn3c(-c4cnc(N)c(C(F)(F)F)c4)cnc3s2)ccc1OC1CCNCC1` [Example 12, 5-{2-[3-Methoxy-4-(piperidin-4-yloxy)-phenyl]-imidazo[2,1-b][1,3,4]thiadiazol-5-yl}-3-trifluoromethyl-pyridin-2-ylamine]: the IC50 under setting [1] is less than 0.1 µM.
On to `CS(=O)(=O)c1ccc(-c2cnc3sc(-c4cnc(N)c(C(F)(F)F)c4)nn23)cc1` [Example 49, 5-[5-(4-Methanesulfonyl-phenyl)-imidazo[2,1-b][1,3,4]thiadiazol-2-yl]-3-trifluoromethyl-pyridin-2-ylamine], for which the IC50 under setting [1] is less than 0.1 µM.
For `COc1ccc(-c2nn3c(-c4cnc(NCCN(C)C)nc4)cnc3s2)cc1OC` [Example 26, N′-{5-[2-(3,4-Dimethoxy-phenyl)-imidazo[2,1-b][1,3,4]thiadiazol-5-yl]-pyrimidin-2-yl}-N,N-dimethyl-ethane-1,2-diamine], the IC50 under setting [1] lay in the range of 0.1 to 1 µM.
Regarding `COc1ccc(-c2nn3c(-c4cnc(N)c(C(F)(F)F)c4)c(C)nc3s2)cc1OC` [Example 3, 5-[2-(3,4-Dimethoxy-phenyl)-6-methyl-imidazo[2,1-b][1,3,4]thiadiazol-5-yl]-3-trifluoromethyl-pyridin-2-ylamine], the inhibition at 10 µM was found to be 97%. Besides, the IC50 under setting [1] was less than 0.1 µM.
Take `COc1ccc(-c2nn3c(-c4ccc(OC)c(OC)c4)cnc3s2)cc1OC` [Example 16, 2,5-Bis-(3,4-dimethoxy-phenyl)-imidazo[2,1-b][1,3,4]thiadiazole]: the inhibition at 10 µM is 97%. Under setting [1], the IC50 was less than 0.1 µM.
Regarding `N#Cc1ccc(-c2nn3c(-c4cnc(N)c(C(F)(F)F)c4)cnc3s2)cc1` [Example 33, 4-[5-(6-Amino-5-trifluoromethyl-pyridin-3-yl)-imidazo[2,1-b][1,3,4]thiadiazol-2-yl]-benzonitrile], under setting [1], the IC50 lay in the range of 0.1 to 1 µM.
Take `COc1ccc(-c2nn3c(-c4cnc(N)c(C(F)(F)F)c4)cnc3s2)cc1` [Example 30, 5-[2-(4-Methoxy-phenyl)-imidazo[2,1-b][1,3,4]thiadiazol-5-yl]-3-trifluoromethyl-pyridin-2-ylamine]: the IC50 under setting [1] fell in the range of 0.1 to 1 µM and the IC50 (read-out: IC50 [μM] PI3Kα) was found to be 0.454 µM.
Consider `COc1ccc(-c2nn3c(-c4ccc(C#N)nc4)c(C)nc3s2)cc1OC` [Example 2, 5-[2-(3,4-Dimethoxy-phenyl)-6-methyl-imidazo[2,1-b][1,3,4]thiadiazol-5-yl]-pyridine-2-carbonitrile], for which the inhibition at 10 µM was determined as 100%. In addition, under setting [1], the IC50 lay within 0.1 to 1 µM.
Turning to `Nc1ncc(-c2cnc3sc(-c4ccc5c(c4)C4(CCNCC4)C(=O)N5)nn23)cc1C(F)(F)F` [Example 39, 5-[2-(2-oxo-1,2-dihydrospiro[indole-3,4′-piperidine]-5-yl)-imidazo[2,1-b][1,3,4]thiadiazol-5-yl]-3-trifluoromethyl-pyridin-2-ylamine], under setting [1], the IC50 is less than 0.1 µM.
